The text below walks through data of patent US11767313B2, “Compounds as nuclear transport modulators and uses thereof” (XWPHARMA LTD., priority 2018, dated 2023).

Series [1] has as its system 3T3-L1. The experiment in a line: CellTiter-Glo cell proliferation assay, 3T3-L1 (normal). As to conditions: Mus musculus. The class given is cell-based. The procedure: (§1) CellTiter-Glo® Luminescent Cell Viability assay (with Promega CellTiter 96® Luminescent CellTiter-Glo® kit) was used to study the proliferation inhibition by test compounds. Compounds were resuspended in DMSO to make a 25 mM stock suspension. Cells of cancer cell lines or normal tissues were seeded in 96-well plates at 1,500 to 5,000 cells/well overnight. Compounds were 2- or 3-fold diluted serially to obtain 10 concentrations. Then, the drugs were added to the cell wells by Bravo (Agilent) and incubated for 72 hours. The cells were lysed by adding CellTiter-Glo® Reagent (per manufacturer's instructions) and subsequently, the luminescence was read using EnVision® (PerkinElmer).
(§2) The percent of growth was calculated as follows. DMSO-treated cells were employed as vehicle control (High control, HC) and culture medium alone was employed as background (Low control, EC). % growth=100×(Lum sample−Lum EC)/(Lum HC−Lum EC). The ICso was calculated by concentration-response curve fitting using Graphpad Prism.
(§3) Hematological cancer cell lines tested included OCI-AML3, MV-4-11, KG-1, Kasumi-1, K562, THP-1; solid cancer cell lines tested included U87MG, U251, T98G, LN229, A172, H460, H2009, A549; normal cell lines tested included HCN2 and 3T3-L1. […] However, they were not toxic to in vitro cultured normal cells.

The test system of series [2] is A549. The experiment in a line: CellTiter-Glo cell proliferation assay, A549. The class given is cell-based. As to conditions: Homo sapiens, 72 hours, Table 1, read-out: Growth inhibition (IC50). The protocol: as §1, §2, §3
The test system of series [3] is U87MG cells. The experiment in a line: Capase-Glo 317 apoptosis assay. The class given is cell-based. As to conditions: Homo sapiens, U-87 MG, 72 hours. The protocol: A Capase-Glo® 317 assay was used to determine the apoptosis activity of test compounds in U87MG cells.
Compounds were dissolved in 25 mM DMSO stock solution and serially diluted. DMSO was used as the vehicle control (high control, HC) and culture medium was used as the background (low control LC). The test compounds were applied to plates and spun at 25° C. at 1,000 RPM for 1 min and shaken on a plate shaker for 2 min. Samples (80 nL) of the compounds from the plates were transferred to 384-well cell culture plates using a liquid handler.
Cells were harvested and the cell numbers counted. 40 μL of the cell suspension with the adjusted density was added to 384-well cell culture pates. The final cell density is 1,000 cells/well. Cell culture medium only was used in the low control (LC) samples. The plates were covered with a lid and placed in a 5% CO2 incur at 37° C. for 72 hours.
After incubating for 72 hours, the plates were removed from the incubator and equilibrated at 25° C. for 15 minutes. CellTiter Glo® regen was incubated at 37° C. before the experiments. 40 μL of Capase-Glo® 317 was added into each well to be detected at a 1:1 ratio to culture medium. The plates were then placed at 25° C. for 30 min and read using an EnSpire® Plate Reader.
The % activity remaining was determined using the following formula: % Remaining Activity=[…]×(Lumsample−LumLC)/(LumHC−LUM LC), where HC is obtained from cells treated with 0.1% DMSO only, LC is obtained from culture medium only.

The subject of series [4] is C8-B4. Description: Cytotoxicity, cell proliferation assay, C8-B4. The class given is cell-based. To be noted: Table 8. The procedure: as §1, §2
The cytotoxicity of test compounds in brain (HCN2), colon cancer (HCT116) and normal colon cell (C8-B4) lines was determined using the cell proliferation assay as described in Example 19.

Series [5] in a line: Ratio of brain to plasma. The class given is in vivo. To be noted: rats, 10 mg/kg PO. The protocol:
Following collection, brain tissue was rinsed with cold saline, dried on filter paper, weighed and snap-frozen by placing on dry ice. All samples were stored frozen at approximately −80° C. until analysis. At the time of analysis, brain tissue was homogenized (homogenizing solution PBS, pH 7.4), mixed with internal standard in acetonitrile, vortexed, centrifuged, and supernatant was injected for analysis. Concentration of compounds in plasma was determined using LC-MS-MS instrumentation (API 4000, Triple Quadrupole LC/MS/MS Mass Spectrometer). Plasma samples were treated with the identical method (except homogenization step) and the concentration of compound in each matrix was calculated based on generated standard curves.

Series [6] concerns H460. Description: CellTiter-Glo cell proliferation assay, H460. The class given is cell-based. To be noted: Homo sapiens, NCI-H460, 72 hours, Table 1, read-out: Growth inhibition (IC50). The protocol:
as §1, §2, §3

A short description of series [7]: Pharmacokinetic profile in plasma. The class given is in vivo. As to conditions: mouse, iv, I. V., mice.
The test system of series [8] is H2009. The experiment in a line: CellTiter-Glo cell proliferation assay, H2009. The class given is cell-based. To be noted: Homo sapiens, NCI-H2009, 72 hours, Table 1, read-out: Growth inhibition (IC50). The procedure: as §1, §2, §3
The target in series [9] is T1, CRM1 (Homo sapiens, UniProt O14980).
T1 construct: from tissue; host or cells: U87MG-luc orthotopic xenograft tumours in mouse brain
T1 sequence (O14980 whole entry): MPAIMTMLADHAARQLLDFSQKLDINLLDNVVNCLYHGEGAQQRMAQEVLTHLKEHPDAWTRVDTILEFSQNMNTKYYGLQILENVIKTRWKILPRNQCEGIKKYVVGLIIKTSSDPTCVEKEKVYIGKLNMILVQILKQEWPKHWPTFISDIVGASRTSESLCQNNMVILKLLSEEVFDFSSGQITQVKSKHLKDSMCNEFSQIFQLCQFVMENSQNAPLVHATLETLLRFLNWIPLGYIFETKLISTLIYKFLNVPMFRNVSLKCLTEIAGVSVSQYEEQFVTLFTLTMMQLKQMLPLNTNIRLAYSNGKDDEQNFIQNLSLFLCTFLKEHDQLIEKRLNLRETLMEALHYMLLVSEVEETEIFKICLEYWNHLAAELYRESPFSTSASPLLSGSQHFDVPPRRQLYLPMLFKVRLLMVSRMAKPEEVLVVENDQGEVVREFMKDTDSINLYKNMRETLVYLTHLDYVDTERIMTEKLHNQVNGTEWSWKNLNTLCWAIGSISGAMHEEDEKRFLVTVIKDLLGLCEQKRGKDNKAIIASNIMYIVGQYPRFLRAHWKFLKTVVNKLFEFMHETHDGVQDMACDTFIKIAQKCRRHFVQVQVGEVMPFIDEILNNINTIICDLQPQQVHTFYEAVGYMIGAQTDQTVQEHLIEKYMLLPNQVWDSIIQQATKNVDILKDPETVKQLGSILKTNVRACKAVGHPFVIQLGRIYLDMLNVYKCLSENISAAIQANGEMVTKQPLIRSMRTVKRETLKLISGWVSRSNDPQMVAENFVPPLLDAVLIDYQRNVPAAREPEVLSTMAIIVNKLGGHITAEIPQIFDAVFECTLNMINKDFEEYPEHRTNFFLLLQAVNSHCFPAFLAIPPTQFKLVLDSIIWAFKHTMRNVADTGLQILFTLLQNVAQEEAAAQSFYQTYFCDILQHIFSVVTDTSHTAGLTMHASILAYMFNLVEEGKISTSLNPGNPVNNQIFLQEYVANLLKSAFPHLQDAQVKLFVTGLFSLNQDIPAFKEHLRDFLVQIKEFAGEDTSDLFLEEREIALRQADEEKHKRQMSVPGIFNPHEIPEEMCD
The experiment in a line: PD effects by IHC in U87MG-luc orthotopic model, CRM1. The class given is in vivo, mice. As to conditions: orally three times a week for 2 weeks; vs vehicle control. The procedure:
Based on the bioluminescent signal of tumor, mice were randomly assigned to respective groups using a computer-generated randomization procedure, which included vehicle and compound III-treated groups, respectively, with 5 animals per group. Compound III (20 mg/kg) was given orally 3 times a week (on Day 1, 3, 5) for 2 weeks. Animals for IHC study were euthanized at 6 hours after the last dose and perfused with normal saline followed by fixation with 4% paraformaldehyde. Entire brains containing tumors were collected and kept in fixative for 24 hours before proceeding for paraffin block.

Read-outs that look alike come from different tables or passages of the source.

Turning to `O=C(/C=C\n1cnc(-c2cc(C(F)(F)F)cc(S(F)(F)(F)(F)F)c2)n1)NNc1cnccn1` [Compound I, (Z)-3-(3-(3-(pentafluorosulfanyl)-5-(trifluoromethyl)phenyl)-1H-1,2,4-triazol-1-yl)-N′-(pyrazin-2-yl)acrylohydrazide], the IC50 in [1] (3T3-L1, Table 6, read-out: 3T3-L1 IC50) was over 50000 nM; in [1] (3T3-L1 normal cell line, 72 hours, Table 1, read-out: Growth inhibition (IC50)), over 50000 nM; in [2], 1490 nM; in [4] (C8-B4) it was 4300 nM; in [6] it was 294 nM; in series [8] it was 521 nM. This molecule returned an EC50 in series [3] of 16000 nM. For the same molecule, the Emax in [3] (U87MG) was determined as 325%. Moreover, the “C8-B4 Max % inh” value in series [4] came out at 91%. In addition, the Kp at 0.25 h in [5] (rat, brain/plasma, 0.25 h) stood at 0.386. Besides, the Kp at 1 h in series [5] (rat, brain/plasma, 1 h) was 0.707. The Kp at 8 h in [5] (rat, brain/plasma, 8 h) came to 0.782. The “brain concentration (second number of pair)” value in [5] (0.25 h) was 319 ng/g; in series [5] (1 h), 1301 ng/g; in series [5] (8 h) it was 194 ng/g. Moreover, the “plasma concentration (first number of pair)” value stood at 810 ng/g in series [5] (0.25 h), 1887 ng/g in series [5] (1 h) and 252 ng/g in [5] (8 h). The same molecule yielded an AUC(0-t) in series [7] of 1040 ng·h/mL. Moreover, the C0 in series [7] was 1010 ng/mL. In [7], the clearance was 16 mL/min/kg. In series [7], this molecule gave a half-life of 1.62 h. Besides, the MRT last in series [7] (read-out: MRT0-last) was 1.56 h. Also, in series [7] (read-out: Vdss), the Vd came out at 1.68 L/kg.
`CC(C)(C)C(=O)NNC(=O)/C=C\n1cnc(-c2cc(C(F)(F)F)cc(S(F)(F)(F)(F)F)c2)n1` [Compound III, (Z)-3-(3-(3-(Pentafluorosulfanyl)-5-(trifluoromethyl)phenyl)-1H-1,2,4-triazol-1-yl)-N′-pivaloylacrylohydrazide]: the “expression of CRM1 in tumors (IHC)” value in series [9] is listed as “significantly decreased”.
